Read-outs that look alike come from different tables or passages of the source.
What was measured:
[1] = system: polymorphonuclear leukocytes (PMNs); assay: H-PMN Assay: LTB4 content of supernatant of A23187-stimulated human PMNs by radioimmunoassay; format: cell-based; settings: Leukocyte
Description: Sodium citrated venous blood is drawn from normal human subjects. After centrifugation at 300 ×g for 15 minutes, the platelet-rich layer of plasma is discarded and an equal volume of Hanks' balanced salt solution (HBSS) is added to the enriched cell fraction. This platelet-depleted cell suspension is then layered on an equal volume of Ficoll-Paque. After centrifugation for 40 minutes at 300 ×g, the bottom layer containing erythrocytes and polymorphonuclear leukocytes (PMNs) is diluted with two volumes of a 0.2% methocel solution. The erythrocytes are sedimented upon standing for 15 minutes, and the supernatant containing the PMNs is aspirated and centrifuged at 300 ×g, for 5 minutes. The cell pellet is then exposed to 0.2% NaCl for 30 seconds to lyse any remaining erythrocytes, and the ionic strength of the suspension is readjusted to 0.9% with NaCl. The PMNs are recovered by centrifugation at 300 ×g for 5 minutes and are suspended in HBSS to a concentration of 2 ×10^6 cells/ml.
The test compounds are dissolved in and diluted with dimethylsulfoxide (DMSO) which also contains 2×10^-6 M of the calcium ionophore, A23187. To 1 ml of the PMN suspension, 10 μl of the DMSO solution is added, and the mixture is incubated at 37° C. for 10 minutes. The PMNs are rapidly pelleted in a microcentrifuge, and the supernatant is kept at -20° C. for future determination of LTB4 content via the radioimmunoassay.

[2] = molecular target: T1, 5-lipoxygenase (Cavia porcellus, UniProt A0A286X958); assay: 5-Lipoxygenase (5-LO) Assay: 5-HETE formation in supernatant of guinea pig PMNL sonicate; format: biochemical
T1 construct: 0.2 ml of the supernatant obtained from the PMNL sonicate; endogenous in cells; host or cells: casein-elicited guinea pig peritoneal polymorphonuclear leukocytes (PMNL), sonicate, 30,000 x g supernatant
T1 sequence (A0A286X958 1-674): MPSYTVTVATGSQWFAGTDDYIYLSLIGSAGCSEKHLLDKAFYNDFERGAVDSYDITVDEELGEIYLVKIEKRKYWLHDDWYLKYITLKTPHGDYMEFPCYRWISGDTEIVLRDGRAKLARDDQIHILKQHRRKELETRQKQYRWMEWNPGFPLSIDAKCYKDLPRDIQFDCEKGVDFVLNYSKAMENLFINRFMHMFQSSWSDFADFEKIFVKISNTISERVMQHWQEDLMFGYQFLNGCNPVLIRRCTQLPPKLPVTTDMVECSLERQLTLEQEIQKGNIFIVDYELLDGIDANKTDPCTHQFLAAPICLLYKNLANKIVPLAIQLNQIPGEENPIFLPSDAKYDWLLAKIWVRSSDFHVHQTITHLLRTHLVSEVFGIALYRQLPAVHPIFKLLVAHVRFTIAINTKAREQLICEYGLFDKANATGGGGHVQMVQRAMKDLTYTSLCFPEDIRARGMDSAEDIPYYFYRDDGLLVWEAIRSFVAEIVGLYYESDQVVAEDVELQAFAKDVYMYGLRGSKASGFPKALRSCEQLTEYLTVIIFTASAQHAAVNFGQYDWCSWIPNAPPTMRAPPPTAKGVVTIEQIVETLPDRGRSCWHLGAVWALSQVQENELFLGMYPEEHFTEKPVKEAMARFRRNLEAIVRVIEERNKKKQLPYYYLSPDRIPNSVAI
Description: Ten milliliters of a 2% casein solution is injected intraperitoneally to guinea pigs weighing 250-300 gm. After 16-18 hours, the guinea pigs are killed by suffocation in a carbon dioxide chamber. The peritoneal cavity is infused with 70 ml of saline and 40-50 ml of the fluid is recovered from the cavity. After centrifugation, cell pellets are washed twice in Hank's balanced salt solution (HBSS) without calcium ion.
The cells are then suspended in 5 ml of sodium phosphate buffer, pH 7.1 containing 1 mM, ethylene diamine tetraacetic acid (EDTA), and 0.1% gelatin. About 20-30×10^7 cells are obtained from one guinea pig.
The PMNL suspension is disrupted by five 1/2-second pulse sonication at the setting of 3 in a Branson Sonifier, Model 350, equipped with a microtip. The sonicates are combined and centrifuged at 30,000 ×g for 10 minutes. The supernatant is kept frozen at -70° C. until use.
Enzyme activity is determined by assaying for 5-hydroxy-6,8,11,14-eicosatetraenoic acid (5-HETE) formation by first incubating 0.2 ml of the supernatant obtained from the PMNL sonicate with the test compound, 1 mM CaCl2, 2 mM ATP, and 1 mM GSH for 5 minutes at 37° C. The mixture is treated with […] ^14 C-arachidonic acid and incubated at 37° C. an additional 10 minutes. The enzyme reaction is then stopped by the addition of 10 μl of 1M citric acid and 10 μl of an alcohol solution containing 20 mg/ml each of indomethacin and butylated hydroxyanisole (BHA). The reaction mixture is spotted (50 μl) on a silica gel plate (Baker TLC plate S1250-PA-19C) and subjected to TLC in a solvent system of ethyl acetate/2,2,4-trimethylpentane/glacialacetic acid/H2 O (90:50:20:100).
The radioactivity of the arachidonic acid and its metabolites (5-HETE and LTB4) is visualized from a developed x-ray film which had been exposed to the TLC plate 1-2 days. The amount of 5-HETE formed is quantitated by scraping the silica gel area corresponding to the spot on the x-ray film, and the radioactivity determined in a Isocap/300 liquid scintillation counter (Searle Analytic, Inc.).
The percent inhibition of the formation of 5-HETE is determined for each concentration of compound tested as compared to a control experiment wherein no test compound is added. The concentration and percent values are plotted on semi log paper and the concentration in which formation of 5-HETE is inhibited by 50% (IC50) is determined by interpolation.

[3] = 10 min, Table II, human PMNs, calcium ionophore A23187, 37° C. for 10 minutes, LTB4 by radioimmunoassay
[4] = Table II, guinea pig PMNL sonicate supernatant, 14C-arachidonic acid, 37° C., read-out: 5-LO (concentration in which formation of 5-HETE is inhibited by 50%, IC50)
[5] = Homo sapiens, second table (Table III), known hydroxamic acid derivatives as comparison
[6] = second table (Table III), known hydroxamic acid derivatives as comparison, read-out: 5-Lo (IC50)

Structure (SMILES) | IC50 [1, 3] | IC50 [2, 4] | IC50 [1, 5] | IC50 [2, 6]
CSc1ccccc1C=CC(=O)N(C)O [Example 23, 2-methylthio-N-hydroxy-N-methyl-cinnamamide] | 100 nM | 392 nM |  | 
CSc1ccc(CCCc2ccccc2)cc1C=CC(=O)N(C)O [Example 27, 2-(methylthio)-5-(3-phenylpropyl)-N-hydroxy-N-methylcinnamamide] | 18 nM | 26 nM |  | 
CCCCSc1ccc(CCCc2ccccc2)cc1C=CC(=O)N(C)O [Example 29, 2-n-butylthio-5-(3-phenylpropyl)-N-hydroxy-N-methylcinnamamide] | 58 nM | 94 nM |  | 
CCc1ccc(CCCc2ccccc2)cc1C=CC(=O)N(C)O [Example 30, 2-ethyl-5-(3-phenylpropyl)-N-hydroxy-N-methylcinnamamide] | 46 nM | 59 nM |  | 
CN(O)C(=O)C=Cc1ccccc1SCc1ccccc1 [Example 31, 2-benzylthio-N-hydroxy-N-methylcinnamamide] | 7 nM | 33 nM |  | 
CCCCSc1ccccc1C=CC(=O)N(C)O [Example 33, 2-(n-butylthio)-N-hydroxy-N-methylcinnamamide] | 22 nM | 47 nM |  | 
CN(O)C(=O)C=Cc1ccccc1SCCCc1ccccc1 [Example 35, 2-[1-(3-phenylpropyl)thio]-N-hydroxy-N-methylcinnamamide] | 16 nM | 9 nM |  | 
CN(O)C(=O)C=Cc1ccccc1Cc1ccccc1 [Example 37, 2-benzyl-N-hydroxy-N-methylcinnamamide] | 28 nM | 53 nM |  | 
CCCCCCCCSc1ccccc1C=CC(=O)N(C)O [Example 38, 2-n-octylthio-N-hydroxy-N-methylcinnamamide] | 11 nM | 28 nM |  | 
CC(C)CSc1ccccc1C=CC(=O)N(C)O [Example 40, 2-[1-(2-methylpropyl)thio]-N-hydroxy-N-methylcinnamamide] | 17 nM | 52 nM |  | 
CN(O)C(=O)C=Cc1ccccc1CCCc1ccccc1 [Example 43, 2-(3-phenylpropyl)-N-hydroxy-N-methylcinnamamide] | 12 nM | 60 nM |  | 
CN(O)C(=O)C=Cc1ccccc1SCCCCCC(F)(F)F [Example 44, 2-[1-(5-trifluoromethylpentyl)thio]-N-hydroxy-N-methylcinnamamide] | 17 nM | 31 nM |  | 
CCCCCCc1ccc(SC)c(C=CC(=O)N(C)O)c1 [Example 45, 2-methylthio-5-n-hexyl-N-hydroxy-N-methylcinnamamide] | 20 nM | 58 nM |  | 
COc1ccccc1C=CC(=O)N(C)O [reference compound] |  |  | 143 nM | 1200 nM
CCCCSc1ccc(CCCc2ccccc2)cc1C(=O)N(C)O [reference compound] |  |  | 440 nM | 178 nM
CN(O)C(=O)C=Cc1ccccc1OCc1ccccc1 [reference compound] |  |  | 42 nM | 54 nM
CCCCOc1ccccc1C=CC(=O)N(C)O [reference compound] |  |  | 52 nM | 41 nM

Reference: patent US5028629A, “5-Lipoxygenase inhibitors” (Eli Lilly and Company, priority 1990, dated 1991)
